Here are results for two compounds from patent publication US20230173135A1, “PROCESS TO COAT A MEDICAL DEVICE SURFACE WITH PEPTIDE-BASED NANOPARTICLES” (priority 2020, published 2023).

For data set [1], the system named is E.coli. It is filed as cell-based. The procedure:
(§1) Bacterial resistance assay. Commercial available Acticoat® dressing from Smith & Nephew was used to study the development of bacterial resistance against Ag. Acticoat® (1 cm^2 area) was placed in water (1 mL) and kept at room temperature for 24 h in order to promote leaching of Ag ions. ICP-MS analysis of leached solution was done to quantify the amount of Ag ions. The leached Acticoat® solution (Ag^+,0.06 ug/mL; sub-minimum inhibitory concentration, sub-MIC) was used to incubate with E.coli or S.aureus suspensions (10^5 CFU/mL) for 20 h in 10% human serum (HS; v/v in PBS). Then, for antimicrobial test, 10^5 CFU/mL of bacteria from passage 1 were incubated with 0.1 ug/mL (minimum inhibitory concentration, MIC) of Acticoat® solution in 10% human serum (HS) for 6 h followed by serial dilution and plating. Plates were incubated at 37° C. for 24 h. The visible bacteria grown on plates were counted. […]
(§2) Next, the inventors evaluated whether LL37NPs induced bacterial resistance (FIG. 5). […] Acticoat® dressing was incubated in PBS for 1, 3 and 5 days followed by the quantification of silver ions using ICP-MS analysis (FIG. 11C). […]
(§3) (A) Schematic diagram showing experimental procedures being used for bacterial resistance assay. […] ICP-MS analysis was performed to quantify the amount of Ag. […]

The subject of data set [2] is P.aeruginosa.
Data set [3] relates to S.aureus. The format is cell-based. The procedure:
as §1, §2, §3

Data set [4] relates to Human keratinocyte cell line (HaCaT). Kind of data set: Biocompatibility: keratinocytes cultured on films, ATP (CellTiter-Glo) assay. The format is cell-based. As to conditions: 4 and 24 h; cells on films or with soluble peptide (20 µg/mL). As for the experimental part:
Cell Culture. Human dermal fibroblast cells (NDHF) (Lonza) were cultured with Dulbecco’s modified eagle’s medium (DMEM) (Sigma) supplemented with 10% (v/v) of fetal bovine serum (Gibco, Grand Island, NY, USA) and 1% (v/v) penicillin/streptomycin (Lonza). NDHF cells under passage number ten were used in all experiments. Human keratinocyte cell line (HaCaT cell line, CLS, Eppelheim, Germany) was cultured as recommended by the vendor. Briefly, HaCaT cells were cultivated using DMEM supplemented with 1% (v/v) penicillin and streptomycin (Invitrogen) and 10% (v/v) fetal bovine serum (FBS, Invitrogen) until 90% of confluence. For passage, HaCat cells were initially trypsinized and then scraped. The cells were sub-cultured at a ratio of 1:3 until achieving the number of cells required for the experiment.
Biocompatibility study. Keratinocytes (2×10^4 cells) were cultured on top of PU-Adhesive-LL37NP, PU-Adhesive or PU films and cultured for 4 and 24 h. […] Cell viability was measured using ATP assay. […]
In vitro cytotoxicity of PU-adhesive-LL37NP films. […] To evaluate the cytotoxicity of films, keratinocytes were cultured on the top of PU-adhesive-LL37NP, PU-adhesive and PU films for 4 and 24 h and then cell viability was evaluated by an ATP assay (FIG. 12A). […]
A general note: In ATP-based viability assays light output follows the ATP content of the culture.

Take `CC[C@H](C)[C@H](NC(=O)[C@H](CCCCN)NC(=O)[C@H](CCC(=O)O)NC(=O)[C@H](CCCCN)NC(=O)[C@H](CO)NC(=O)[C@H](CCCCN)NC(=O)[C@H](CCCNC(=N)N)NC(=O)[C@H](Cc1ccccc1)NC(=O)[C@H](Cc1ccccc1)NC(=O)[C@H](CC(=O)O)NC(=O)CNC(=O)[C@H](CC(C)C)NC(=O)[C@@H](N)CC(C)C)C(=O)NCC(=O)N[C@@H](CCCCN)C(=O)N[C@@H](CCC(=O)O)C(=O)N[C@@H](Cc1ccccc1)C(=O)N[C@@H](CCCCN)C(=O)N[C@@H](CCCNC(=N)N)C(=O)N[C@H](C(=O)N[C@H](C(=O)N[C@@H](CCC(N)=O)C(=O)N[C@@H](CCCNC(=N)N)C(=O)N[C@H](C(=O)N[C@@H](CCCCN)C(=O)N[C@@H](CC(=O)O)C(=O)N[C@@H](Cc1ccccc1)C(=O)N[C@@H](CC(C)C)C(=O)N[C@@H](CCCNC(=N)N)C(=O)N[C@@H](CC(N)=O)C(=O)N[C@@H](CC(C)C)C(=O)N[C@H](C(=O)N1CCC[C@H]1C(=O)N[C@@H](CCCNC(=N)N)C(=O)N[C@H](C(=O)N[C@@H](CCC(=O)O)C(=O)N[C@@H](CO)C(=O)N[C@@H](CS)C(=O)O)[C@@H](C)O)C(C)C)[C@@H](C)CC)C(C)C)[C@@H](C)CC` [LL37 peptide]: the MIC entry in data set [1] (free peptide), in data set [2] and in data set [3] (free peptide) was “up to 15 µg/mL” throughout. The “keratinocyte metabolism / cytotoxicity (ATP production)” value in data set [4] is recorded as “No statistic difference in keratinocyte metabolism”.

As for `O=C(N[C@H](CO)[C@H](O)c1ccc([N+](=O)[O-])cc1)C(Cl)Cl` [chloramphenicol], the “time to induce resistance” value in data set [1] (serial passages at sub-MIC) and in data set [3] (serial passages at sub-MIC) was at most 3 days throughout.
